From patent US20250002471A1 (Gilead Sciences, Inc., priority 2020, published 2025) come the findings set out here.

Assay [1] concerns the target T1, TLR9 (Homo sapiens, UniProt Q9NR96).
T1 construct: lymphocytes, monocytes and dendritic cells that express TLR7, TLR8 and TLR9; endogenous in cells; host or cells: human PBMCs from healthy donors
T1 sequence (Q9NR96 26-1032): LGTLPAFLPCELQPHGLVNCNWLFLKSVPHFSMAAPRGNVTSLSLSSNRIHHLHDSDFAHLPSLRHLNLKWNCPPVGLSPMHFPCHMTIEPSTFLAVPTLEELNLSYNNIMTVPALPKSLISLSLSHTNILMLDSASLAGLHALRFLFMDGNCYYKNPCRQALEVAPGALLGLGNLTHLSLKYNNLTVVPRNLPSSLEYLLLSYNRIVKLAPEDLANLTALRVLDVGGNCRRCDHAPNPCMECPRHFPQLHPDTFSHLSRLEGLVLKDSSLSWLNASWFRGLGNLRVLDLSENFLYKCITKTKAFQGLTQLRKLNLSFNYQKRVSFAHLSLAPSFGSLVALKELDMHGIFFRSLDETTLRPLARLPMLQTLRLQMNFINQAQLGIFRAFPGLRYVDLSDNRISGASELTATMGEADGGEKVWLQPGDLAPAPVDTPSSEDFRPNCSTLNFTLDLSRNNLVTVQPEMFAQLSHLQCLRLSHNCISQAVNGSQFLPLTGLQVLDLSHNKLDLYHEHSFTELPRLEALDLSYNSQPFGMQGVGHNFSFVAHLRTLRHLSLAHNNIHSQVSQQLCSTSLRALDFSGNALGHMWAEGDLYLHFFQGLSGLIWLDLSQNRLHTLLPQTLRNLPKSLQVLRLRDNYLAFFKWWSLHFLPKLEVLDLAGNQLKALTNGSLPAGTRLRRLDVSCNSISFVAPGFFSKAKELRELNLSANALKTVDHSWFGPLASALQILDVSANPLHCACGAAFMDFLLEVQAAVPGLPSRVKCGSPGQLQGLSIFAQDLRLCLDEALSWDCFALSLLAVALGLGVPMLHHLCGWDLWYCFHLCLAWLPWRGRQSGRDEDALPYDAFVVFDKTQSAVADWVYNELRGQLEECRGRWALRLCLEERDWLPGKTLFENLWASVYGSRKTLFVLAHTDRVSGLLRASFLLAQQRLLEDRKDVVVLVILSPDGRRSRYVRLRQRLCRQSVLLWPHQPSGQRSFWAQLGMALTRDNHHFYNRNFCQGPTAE
Put plainly: Human PBMC cell-based assay, TLR9 agonist ODN-2216 stimulation, cytokine (IL-6 and IFNα) readout. As to conditions: human PBMCs, ODN-2216 3 μM, 6 hours; Table 26; read-out: TLR-9 EC50. The source says: (§1) Human peripheral blood mononuclear cells (PBMCs) consist of lymphocytes, monocytes and dendritic cells that express TLR7, TLR8 and TLR9. These cells respond to TLR7, TLR8 and TLR9 ligand stimulation and produce cytokines and chemokines in vitro and in vivo. Human PBMCs are therefore suitable to be used in a cell-based assay to assess the in vitro potency of a TLR 7, 8, and/or 9 antagonist. The result is expected to be more translatable to the pharmacodynamics response in vivo than cell line-based assays.
(§2) Cryopreserved human PBMCs from healthy donors were thawed and resuspended in RPMI-1640 media with L-glutamine (Corning) supplemented with 10% Fetal Bovine Serum (Hyclone) and 1X Penicillin-Streptomycin (Corning). After counting, the cell density was adjusted to 2 million cells/ml and incubated for 1 hour at 37° C., 5% CO2 for recovery. Following the recovery, the cells were plated by adding 50p per well (100,000 cells) to 384-well cell culture plates (Greiner) containing 250nl of test antagonists in 100% DMSO per well, in a 10 points dose response in quadruplicates. PBMCs were incubated in the presence of test antagonists for one hour at 37° C., 5% CO2 before being stimulated with a TLR7 or TLR9 agonist. GS-986 (Gilead Sciences) was used as the TLR7 agonist at a final concentration of 400 nM. ODN-2216 (InvivoGen) was used as the TLR9 agonist at a final concentration of 3μM. PBMCs were incubated in the presence of the test antagonist and the TLR7 (or TLR9) agonist for an additional 6 hours at 37° C., 5% CO2. At the end of the incubation, the cell culture plates were centrifuged at 500 g for 5 min, and the cell culture supernatant was collected. The level of cytokines (IL-6 and IFNα) in the supernatant was measured by electrochemiluminescence immunoassays (Mesoscale Discovery) following manufacturer's recommended protocols. The level of cytokine measured was plotted against the test antagonist concentration and fitted to a sigmoidal function to determine the EC50, which are shown below in Table 26.

Assay [2] concerns the target T2, TLR7 (Homo sapiens, UniProt Q9NYK1).
T2 construct: lymphocytes, monocytes and dendritic cells that express TLR7, TLR8 and TLR9; endogenous in cells; host or cells: human PBMCs from healthy donors
T2 sequence (Q9NYK1 27-1049): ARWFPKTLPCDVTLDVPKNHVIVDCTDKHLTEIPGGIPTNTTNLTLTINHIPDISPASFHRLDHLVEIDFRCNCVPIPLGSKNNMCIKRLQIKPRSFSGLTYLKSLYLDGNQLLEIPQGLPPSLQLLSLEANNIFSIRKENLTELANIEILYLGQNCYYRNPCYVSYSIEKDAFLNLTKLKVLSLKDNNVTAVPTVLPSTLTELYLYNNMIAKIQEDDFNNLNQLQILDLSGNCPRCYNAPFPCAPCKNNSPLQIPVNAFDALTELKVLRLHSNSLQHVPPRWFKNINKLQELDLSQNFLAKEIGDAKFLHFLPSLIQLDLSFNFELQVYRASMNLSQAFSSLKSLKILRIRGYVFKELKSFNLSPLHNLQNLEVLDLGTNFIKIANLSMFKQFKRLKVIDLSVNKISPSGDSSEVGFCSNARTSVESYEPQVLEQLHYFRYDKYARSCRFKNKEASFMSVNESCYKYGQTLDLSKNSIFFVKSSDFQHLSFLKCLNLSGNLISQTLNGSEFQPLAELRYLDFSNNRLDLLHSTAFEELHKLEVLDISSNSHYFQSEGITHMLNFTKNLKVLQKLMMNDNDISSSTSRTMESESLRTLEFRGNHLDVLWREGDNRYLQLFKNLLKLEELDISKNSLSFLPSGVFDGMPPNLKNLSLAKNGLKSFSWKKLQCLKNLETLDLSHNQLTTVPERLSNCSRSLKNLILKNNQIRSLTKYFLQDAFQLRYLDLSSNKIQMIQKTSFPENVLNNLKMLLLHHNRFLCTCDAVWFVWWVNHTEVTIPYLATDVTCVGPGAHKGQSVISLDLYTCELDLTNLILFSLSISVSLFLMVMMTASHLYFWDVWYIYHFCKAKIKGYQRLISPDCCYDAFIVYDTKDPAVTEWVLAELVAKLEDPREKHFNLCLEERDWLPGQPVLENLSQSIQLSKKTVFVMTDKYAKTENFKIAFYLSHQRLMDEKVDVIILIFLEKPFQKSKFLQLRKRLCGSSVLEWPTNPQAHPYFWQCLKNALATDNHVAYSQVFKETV
Put plainly: Human PBMC cell-based assay, TLR7 agonist GS-986 stimulation, cytokine (IL-6 and IFNα) readout. As to conditions: human PBMCs, GS-986 400 nM, 6 hours; Table 26; read-out: TLR-7 EC50.
Description: as §1, §2

In the case of `Cc1cc(-c2[nH]c3cc(-c4ccc(N5CCN6CC(F)(F)C[C@H]6C5)nc4)ccc3c2C)cc(C)n1` [Example 144], the EC50 is 727 nM in assay [1] and > 1000 nM in assay [2].

`Cc1cc(-c2[nH]c3cc(-c4cn(C5CCNCC5)nn4)ccc3c2C)cc(C)n1` [Example 72, 2-(2,6-dimethylpyridin-4-yl)-3-methyl-6-(1-(piperidin-4-yl)-1H-1,2,3-triazol-4-yl)-1H-indole]: the figures for the EC50 in assay [1] and in assay [2] were 232 nM and 92 nM, respectively.

On to `Cc1cc(-c2[nH]c3cc(-c4cnc5c(c4)ncn5C)ccc3c2C)cc(C)n1` [Example 46], for which the figures for the EC50 in assay [1] and in assay [2] were 1070 nM and 183 nM, respectively.

For `Cc1cc(-c2[nH]c3cc(-c4ccn5ncnc5c4)ccc3c2C)cc(C)n1` [Example 58], the values for the EC50 in assay [1] and in assay [2] were 1130 nM and 373 nM, respectively.

Consider `COc1ccc(-c2[nH]c3cc(-c4ccc(N5CCNCC5)nc4)ccc3c2C)cc1OC` [Example 81], for which the EC50 in assay [1] was found to be 758 nM; in assay [2] it was 34.4 nM.

With `Cc1cc(-c2[nH]c3cc(-c4ccc5c(c4)CC(N)C5)ccc3c2C)cc(C)n1` (stereo not shown) [Example 20], the EC50 was determined as 88.5 nM in assay [1] and 119 nM in assay [2].

`Cc1cc(-c2[nH]c3cc(-c4ccc(C5=CCCNC5)nc4)ccc3c2C)cc(C)n1` [Example 162]: the EC50 in assay [1] is 30 nM; in assay [2], 9.1 nM.

In the case of `Cc1cc(-c2[nH]c3cc(-c4cnn(C5CCNC5)c4)ccc3c2C)cc(C)n1` (stereo not shown) [Example 17], the EC50 amounted to 73.6 nM in assay [1] and 124 nM in assay [2].

As for `Cc1c(-c2ccnc(C#N)c2)[nH]c2cc(-c3ccc(N4CCNCC4)nc3)ccc12` [Example 75], the EC50 in assay [1] is 499 nM; in assay [2] it was 77.3 nM.

On to `Cc1cc(-c2[nH]c3cc(-c4ccc(N5CCN(C(=O)[C@@H]6CCCN6)CC5)nc4)ccc3c2C)cc(C)n1` [Example 135], for which the EC50 was determined as 41.3 nM in assay [1] and 73.9 nM in assay [2].

With `Cc1cc(-c2[nH]c3cc(-c4ccc(N5CCNCC5)nc4)ccc3c2C)c2ccccc2n1` [Example 90], the EC50 in assay [1] is 753 nM; in assay [2] it was 29.8 nM.

For the compound `Cc1cc(-c2[nH]c3cc(-c4ccc(N5CCNCC5)nc4)ccc3c2C)c(C)cn1` [Example 74], the EC50 in assay [1] turned out to be 1250 nM; in assay [2], 14.3 nM.

For `Cc1cc(-c2[nH]c3nc(-c4ccc(N5CCNCC5)nc4)ccc3c2C)cc(C)n1` [Example 150], the EC50 came to 72.3 nM in assay [1] and 760 nM in assay [2].

Consider `Cc1cc(-c2[nH]c3cc(-c4ccc(C(=O)N5CC[C@H](N)C5)cc4)ccc3c2C)cc(C)n1` [Example 120, (S)-(3-aminopyrrolidin-1-yl)(4-(2-(2,6-dimethylpyridin-4-yl)-3-methyl-1H-indol-6-yl)phenyl)methanone], for which the EC50 in assay [1] was found to be 89.5 nM; in assay [2] it was 152 nM.

As to `Cc1cc(-c2[nH]c3cc(-c4ccc(S(=O)(=O)C5CCNCC5)cc4)ccc3c2C)cc(C)n1` [Example 42], the figures for the EC50 in assay [1] and in assay [2] were 106 nM and 150 nM, respectively.

`Cc1cc(-c2[nH]c3cc(-c4ccc5nc([C@H]6CCCCN6)[nH]c5c4)ccc3c2C)cc(C)n1` [Example 164]: the results for the EC50 in assay [1] and in assay [2] were 49.1 nM and 22.8 nM, respectively.

Regarding `Cc1c(-c2cnc(C(F)(F)F)nc2)[nH]c2cc(-c3ccc(N4CCNCC4)nc3)ccc12` [Example 83], the EC50 was determined as 756 nM in assay [1] and 778 nM in assay [2].

For `Cc1cc(-c2[nH]c3cc(-c4ccc(NC5CCNCC5)nc4)ccc3c2C)cc(C)n1` [Example 24], the EC50 was determined as 89.6 nM in assay [1] and 8.3 nM in assay [2].

`Cc1cc(-c2[nH]c3cc(-c4ccc(N5CCN(CC(F)F)CC5)nc4)ccc3c2C)cc(C)n1` [Example 141, 6-(6-(4-(2,2-difluoroethyl)piperazin-1-yl)pyridin-3-yl)-2-(2,6-dimethylpyridin-4-yl)-3-methyl-1H-indole]: the EC50 in assay [1] is 120 nM; in assay [2], > 1000 nM.

With `Cc1c(-c2cc(C)c3ncnn3c2)[nH]c2nc(C3CCNCC3)ccc12` [Example 153], the EC50 is 1580 nM in assay [1] and 108 nM in assay [2].

For `Cc1cc(-c2[nH]c3cc(-c4cnc5c(c4)CCNC5)ccc3c2C)cc(C)n1` [Example 181, 3-[2-(2,6-dimethyl-4-pyridyl)-3-methyl-1H-indol-6-yl]-5,6,7,8-tetrahydro-1,7-naphthyridine], the EC50 is 35.2 nM in assay [1] and 48.3 nM in assay [2].

For “2-(2,6-dimethylpyridin-4-yl)-3-methyl-6-(1′,2′,3′,6′-tetrahydro-[2,4′-bipyridin]-5-yl)-1H-indole [Example 133]”, the figures for the EC50 in assay [1] and in assay [2] were 50.4 nM and 24.8 nM, respectively.

Consider `Cc1cc(-c2[nH]c3cc(-c4ccc(N5CCN(CCO)CC5)nc4)ccc3c2C2CC2)cc(C)n1` [Example 143], for which the EC50 in assay [1] worked out at 124 nM; in assay [2], 3.4 nM.

As for `CNCCN(C)c1ccc(-c2ccc3c(C)c(-c4cc(C)nc(C)c4)[nH]c3c2)cn1` [Example 30], the EC50 in assay [1] was 55.8 nM; in assay [2] it was 24.1 nM.

Turning to `COc1cc(-c2ccc3c(C)c(-c4cc(C)nc(C)c4)[nH]c3c2)ccn1` [Example 56, 2-(2,6-dimethylpyridin-4-yl)-6-(2-methoxypyridin-4-yl)-3-methyl-1H-indole], the values for the EC50 in assay [1] and in assay [2] were 3040 nM and 374 nM, respectively.

As to `Cc1cc(-c2[nH]c3cc(C4CCNC4)ccc3c2C)cc(C)n1` (stereo not shown) [Example 54], the EC50 in assay [1] amounted to 69.4 nM; in assay [2], 1390 nM.
